Literature values in publication PMC11865978, “Cellular Activity of CQWW Nullomer-Derived Peptides” (ACS Omega, 2025).

Legend:
[1] = test system: triple-negative breast cancer mouse model; settings: cited from earlier work
Description: (§1) Closely related to nullomer peptides, rarely observed amino acid stretches have also been studied by Capone et al., who assert that the minimal sufficient antigenic determinants of a protein could be encoded in just five rarely seen amino acids.[20] Complementing this, Patel et al. noted that these rare sequences could be used to enhance antigen-specific immune responses when dosed alongside adjuvant vaccines.[21] It was also noted by Koulouras et al. that human viruses rarely share human nullomers, facilitating host mimicry and immune evasion,[22] an interesting example of this being highligh ...

NCI-60 panel = settings: 60 cell lines from human cancers of nine organs; cited from earlier work
Description: as §1

[2] = test system: normal cell lines and cancer cell lines; settings: cited from earlier work
Description: as §1

Substance: WCMNW [permutation of pentamer nullomer NWMWC, Alileche et al]
- gene expression by transcriptomics in triple-negative breast cancer mouse model [1]: downregulation of key genes involved in the mitochondrial TCA cycle
- lethal effect on NCI-60 panel (NCI-60 panel): lethal to a high fraction of oncogenic cell lines
- mitochondrial impairment [2]: caused mitochondrial impairment in both normal cell lines and cancer cell lines
